From patent publication US11712429B2, “Low eructation composition and methods for treating and/or preventing cardiovascular disease in a subject with fish allergy/hypersensitivity” (Amarin Pharmaceuticals Ireland Limited, priority 2010, dated 2023)

What was measured:
[1] = design: species or system human; details: in vivo
Method: A phase I, multiple dose pharmacokinetic study in healthy male volunteers was carried out at a single center. Twenty-four subjects were divided into two treatment groups of 12 subjects each (groups A and B). Both groups received the same total daily dose of AMR101 but the dosing regiments were different. All subjects received a single oral dose of 2 g AMR101 on Day 1. Treatment Group A received 28 continuous once daily doses of 2 g AMR101. Treatment Group B received 27 continuous twice daily doses of 1 g AMR101 and a single dose of 2 g of AMR101 on day 30.
Levels of EPA and other essential fatty acids were determined in plasma and red blood cells. Blood samples for pharmacokinetic analysis were taken at the following time points for Treatment groups A and B:
Days 9, 16, 23: pre morning dose;
Days 37, 44, 58: post last dose.
A first Interim Report presents the following pharmacokinetic results for Treatment Group B:
Red cell—Day 1 (Pre-dose and 36 h), Day 30 (1 h post-dose), Day 37, Day 44, Day 58.

[2] = tested on: subjects with age-associated impairment (AAMI); assay: CDR computerized cognitive test battery, 6-week placebo-controlled dose-ranging study; type: in vivo, human
Method: A single center, double blind, randomized, parallel-group, placebo controlled dose-ranging study of E-EPA in subjects with age-associated impairment (AAMI) was performed. The primary goal was to examine the effect of ethyl-EPA versus placebo on cognitive performance in subjects with AAMI as measure by the power of attention tasks in a computerized test batter over a period of 6 weeks. Secondary objectives were to:
(1) examine the effect of E-EPA versus placebo over 6 weeks on the following tests in the computerized cognitive battery: Continuity of attention tasks; Quality of working memory tasks; Quality of episodic memory tasks; Speed of attention tasks;
The study plan was to enroll 96 subjects who would be randomly allocated to 1 of 4 possible treatment groups for 6 weeks, in a balanced block design (24 subjects per group), as follows: • 1. 1 g ethyl-EPA daily • 2. 2 g ethyl-EPA daily • 3. 4 g ethyl-EPA daily • 4. Placebo (paraffin oil) daily
Ethyl-EPA was provided as 500 mg soft gel capsules providing ethyl-EPA of >96% purity, 0.25% to 0.38% by weight ethyl octadecatetraenoate, 0.075% to 0.15% by weight ethyl nonaecapentaenoate, 0.25% to 0.35% by weight ethyl arachidonate, 0.3% to 0.4% by weight ethyl eicosatetraenoate (ETA-E), 0.075% to 0.15% ethyl heneicosapentaenoate and 0.2% dl-[…]-tocopherol as an antioxidant. Matching placebo capsules contained […] of liquid paraffin and 0.2% dl-[…]-tocopherol. The placebo group was further randomized so that an equal number of subjects (8) was allocated 1 g, 2 g or 4 g placebo. Study drug was taken twice daily (BID) as a divided dose (e.g. for the 1 g dose, 500 mg was given in the morning and a further 500 mg was given in the evening) with a light snack or meal.
The study consisted of a screening visit, a training visit and 4 study visits. At the screening visit, subjects' eligibility was determined through cognitive tests (verbal paired associated learning [PAL] subscale, vocabulary subtest, Memory Assessment Clinics Questionnaire [MAC-Q], mini mental state evaluation [MMSE] and MINI [mini international neuropsychiatirc interview; sections 1 and 2 of Diagnostic and Statistical Manual of Mental Disorders, 4th Ed. (DSM-IV) plus dysthymia]), haematology, clinical chemistry and 12-lead electrocardiogram (ECG). At the training visit, subjects were shown how to use the CDR computerized system. Subjects took study drug for 6 weeks and on Days 0, 14, 28 and 42, subjects underwent the CDR cognitive test battery.
A selection of tasks from the CDR computerized cognitive assessment system were administered (Appendix 8 of protocol) at Visit 2 (training visit), Visit 3 (baseline), Visit 4 (Day 14), Visit 5 (Day 28) and Visit 6 (Day 42). Parallel forms of the tests were presented at each testing session. All tasks were computer-controlled, the information presented on high resolution monitors, and the responses recorded via a response model containing 2 buttons 1 marked ‘no’ the other ‘yes’. Five CDR composite scores were used as the primary/secondary outcome variables.
Summary statistics were provided for the ITT and Study PP Populations separately for all composite scores, major and supportive variables. Summary statistics were performed for both the unadjusted and difference from baseline data (i.e. the difference from the time matched pre-dose assessments on Day 0). Summary statistics were calculated by treatment, day and time-point. The summary statistics comprised n, mean, median, SD, standard error of mean (SEM), minimum and maximum values.
Difference from baseline data for each major variable was evaluated by an Analysis of Covariance (ANCOVA) using SAS® PROC MIXED Version 8.2.
Fixed effects for treatment, day, time point, treatment by day, treatment by time point, treatment by day by time-point were fitted. Subject within treatment was fitted as a repeated effect using the repeated statement. The compound symmetry covariance structure was used. […]

## CC/C=C\C/C=C\C/C=C\C/C=C\C/C=C\CCCC(=O)OCC [AMR101, all-cis eicosa-5,8,11,14,17-pentaenoic acid ethyl ester]
[1]; po
  plasma lipid EPA levels at 48 hours post-administration: remaining above baseline
[1]; male, human
  Tmax: 4.64 h
[1]; male, human, po
  time of maximum plasma lipid EPA values: 5 h
[2]; 1 and 4 g ethyl-EPA on Day 42, versus placebo
  Choice Reaction Time: some trends for benefit
[2]; 2 g ethyl-EPA, only visible in the ITT population
  Continuity of Attention: overall decrease
[2]; Ethyl-EPA vs placebo, F-ratio statistics
  Speed of Memory and subtasks (Spatial and Numeric Working Memory Speeds, Word and Picture Recognition Speed): no differences in performance
[2]; active treatment versus placebo, no obvious treatment-related pattern
  Digit Vigilance Targets Detected: isolated decreases
[2]; active treatment vs placebo
  Self-rated Calmness: no difference in ratings
[2]; ethyl-EPA 1, 2, 4 g daily vs placebo, 6 weeks, ANCOVA
  Power of Attention: no statistically significant effect of treatment
[2]; ethyl-EPA 1 g and 2 g on Day 28, versus placebo, no clear treatment-related pattern
  Choice Reaction Time: statistically significant benefits
[2]; ethyl-EPA 1 g and 2 g versus placebo on Days 14 and 28, judged due to chance
  Quality of Working Memory: isolated statistically significant decreases
[2]; ethyl-EPA 2 g on Day 28, judged unlikely treatment-related
  Self-rated Contentment: statistically significant decreases in ratings
[2]; ethyl-EPA versus placebo at various time-points, judged unlikely to be treatment effect
  Quality of Episodic Secondary Memory: statistically significant decreases
[2]; ethyl-EPA vs placebo
  Self-rated Alertness: no apparent difference in ratings
[2]; ethyl-EPA vs placebo, 6 weeks
  Continuity of Attention: did not show a difference
[2]; post-hoc analysis, ethyl-EPA 4 g vs corresponding placebo
  Reaction times in the attention tasks (Power of Attention, Simple Reaction Time, Choice Reaction Time): improved the subjects' reaction times
